The values that follow come from US9340500B2, “Aromatic heterocyclic derivative having TRPV4-inhibiting activity” (SHIONOGI & CO., LTD., priority 2011, dated 2016).

Molecules are shown by their SMILES. ≈ marks a conversion by molar mass, not a printed value.

A short description of data set [1]: Solubility test. It counts as physicochemical. The note with it: artificial intestinal juice (phosphate buffer) with 1% DMSO, fassgf or other biorelevant, kinetic from dmso stock, artificial intestinal juice pH 6.8, 16 hours at 25° C. The method, boiled down: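 A DMSO stock was added to artificial intestinal juice at pH 6.8, giving 1% DMSO. The mixture stood 16 hours at 25° C. and was vacuum-filtered. Dissolved compound in the filtrate was quantified by HPLC or LC/MS/MS using absolute calibration.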

Data set [2] can be described thus: Metabolism stability test. It counts as in vitro ADME. The note with it: human liver microsomes, 30 minutes, compound concentration 2 μmol/L. As to the method: Using a commercially available pooled human hepatic microsomes, a test compound was reacted for a constant time, a remaining rate was calculated by comparing a reacted sample and an unreacted sample, thereby, a degree of metabolism in liver was assessed.
A reaction was performed (oxidative reaction) at 37° C. for 0 minute or 30 minutes in the presence of 1 mmol/L NADPH in 0.2 mL of a buffer (50 mmol/L Tris-HCl pH 7.4, 150 mmol/L potassium chloride, 10 mmol/L magnesium chloride) containing 0.5 mg protein/mL of human liver microsomes. After the reaction, 50 μL of the reaction mixture was added to 100 μL of a methanol/acetonitrile=1/1 (v/v), mixed and centrifuged at 3000 rpm for 15 minutes. The test compound in the supernatant was quantified by LC/MS/MS, and a remaining amount of the test compound after the reaction was calculated, letting a compound amount at 0 minute reaction time to be 100%. Hydrolysis reaction was performed in the absence of NADPH and glucuronidation reaction was in the presence of 5 mM UDP-glucuronic acid in place of NADPH, followed by similar operations.

The target of data set [3] is human ether-a-go-go related gene (hERG) channel (Homo sapiens (Human), UniProt Q12809). Kind of data set: hERG test (whole cell patch clamp, IKr). It counts as cell-based. The note with it: 1 μmol/L of test compound, HEK293 cells expressing hERG. The text has this:
For the purpose of assessing risk of an electrocardiogram QT interval prolongation, effects on delayed rectifier K^+ current (IKr), which plays an important role in the ventricular repolarization process, was studied using HEK293 cells expressing human ether-a-go-go related gene (hERG) channel.
After a cell was retained at a membrane potential of −80 mV by whole cell patch clamp method using an automated patch clamp system (PatchXpress 7000A, Axon Instruments Inc.), IKr induced by depolarization pulse stimulation at +40 mV for 2 seconds and, further, repolarization pulse stimulation at −50 mV for 2 seconds was recorded. […] From the recording IKr, an absolute value of the tail peak current was measured based on the current value at the resting membrane potential using an analysis software (DataXpress ver. 1, Molecular Devices Corporation). Further, the % inhibition relative to the tail peak current before application of the test substance was calculated, and compared with the vehicle-applied group (0.1% dimethyl sulfoxide solution) to assess influence of the test substance on IKr.

Chain of human ether-a-go-go related gene (hERG) channel (Q12809 whole entry): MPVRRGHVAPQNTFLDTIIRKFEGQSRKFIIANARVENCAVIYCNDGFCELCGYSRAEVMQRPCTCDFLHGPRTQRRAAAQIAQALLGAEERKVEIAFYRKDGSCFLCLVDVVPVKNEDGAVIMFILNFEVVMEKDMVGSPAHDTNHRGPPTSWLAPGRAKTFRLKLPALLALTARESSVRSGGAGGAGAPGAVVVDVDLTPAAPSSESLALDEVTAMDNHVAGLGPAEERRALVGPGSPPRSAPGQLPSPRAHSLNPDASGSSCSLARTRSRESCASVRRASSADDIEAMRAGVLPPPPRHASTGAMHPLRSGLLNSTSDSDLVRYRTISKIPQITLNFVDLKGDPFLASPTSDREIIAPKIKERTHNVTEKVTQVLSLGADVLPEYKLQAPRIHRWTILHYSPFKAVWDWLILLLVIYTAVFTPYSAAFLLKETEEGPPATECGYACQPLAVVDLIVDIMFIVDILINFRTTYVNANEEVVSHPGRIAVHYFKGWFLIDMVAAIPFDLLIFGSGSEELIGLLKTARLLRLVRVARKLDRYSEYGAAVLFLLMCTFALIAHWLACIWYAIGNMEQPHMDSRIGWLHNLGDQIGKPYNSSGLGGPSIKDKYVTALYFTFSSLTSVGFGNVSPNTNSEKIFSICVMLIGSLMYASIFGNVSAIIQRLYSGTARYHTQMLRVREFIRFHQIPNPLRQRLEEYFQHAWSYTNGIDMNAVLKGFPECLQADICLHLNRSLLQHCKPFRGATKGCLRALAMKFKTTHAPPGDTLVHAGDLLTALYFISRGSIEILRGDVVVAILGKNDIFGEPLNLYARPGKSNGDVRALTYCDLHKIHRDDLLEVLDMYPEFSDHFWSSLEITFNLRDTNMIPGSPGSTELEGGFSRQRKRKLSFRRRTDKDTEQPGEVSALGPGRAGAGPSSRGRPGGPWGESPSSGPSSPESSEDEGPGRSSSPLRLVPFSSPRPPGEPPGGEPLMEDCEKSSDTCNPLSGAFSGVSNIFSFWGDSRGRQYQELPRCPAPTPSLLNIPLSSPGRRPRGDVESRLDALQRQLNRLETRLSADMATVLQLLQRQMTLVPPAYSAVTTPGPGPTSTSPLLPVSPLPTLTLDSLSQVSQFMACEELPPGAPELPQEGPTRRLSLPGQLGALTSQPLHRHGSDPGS

In data set [1], `Cc1c(C(=O)Nc2cccc(C(F)(F)F)c2)ccn1CCCN1CCOCC1` [Compound I-007] registered a solubility at 16 h greater than 50 µM. The “remaining rate (metabolism stability)” value in data set [2] stood at 85%.

`Cc1c(C(=O)Nc2cccc(C(F)(F)F)c2)cc(-c2ccccc2)n1CCCN(C)C` [Compound I-018] registered a solubility at 16 h in data set [1] greater than 50 µM. In data set [2], the “remaining rate (metabolism stability)” value was 70.6%.

In the case of `Cc1c(C(=O)Nc2cccc(C(F)(F)F)c2)cc(-c2ccccc2)n1CCCNS(C)(=O)=O` [Compound I-026], the solubility at 16 h in data set [1] worked out at 10.1 µM (≈ 4.84 µg/mL). Moreover, the hERG % inhibition in data set [3] was found to be 11.7%.
